In patent US7767240B2, “Microbiological control in poultry processing” (priority 2001, dated 2010):

Tests used:
[1] = test system: planktonic HPC (heterotrophic plate count) bacteria; test: HPC bacteria eradication in planktonic form, PVC sampling pipes; format: cell-based
From the text: In another group of tests, the results of which are depicted in FIGS. 5 through 10, several bromine-based microbiocides of this invention were utilized in tests illustrating their effectiveness in eradicating or controlling Heterotrophic Plate Count bacteria i.e., a mixture of naturally-occurring pathogenic bacteria of various unidentified species. These bacteria were challenged both in the form of biofilms and in planktonic form.
The experimental conditions utilized in these tests involved use of an apparatus consisting of three parallel transparent PVC sampling pipes. These pipes were used for collection of biofilm (i.e., sessile or surface attached) bacteria samples; one as control pipe, one for a relatively low biocide concentration and the third for a higher biocide concentration. The biocide challenge in each case was divided into three phases. First was a 14-day inoculation. Next was a 48-hour disinfection period. Finally a 2-week recovery period was provided. The biocide under test was slug-dosed and during the first hour of exposure, the concentration was adjusted to achieve the desired concentration level.
The source of the naturally-grown heterotrophic plate count (HPC) bacteria was sediment and associated water collected from the recirculating hot water system of a hospital. […]

Salmonella = Salmonella positive samples, simulated USDA HACCP detection (Example 6); format: cell-based, Salmonella enteritidis; conditions: for Salmonella Positive Samples (Number per 51): birds inoculated with Salmonella prior to chilling
Protocol: The objective of this study was to determine the effect of Clorox® bleach and 1,3-dibromo-5,5-dimethylhydantoin (DBDMH) on individual carcass bacteria field strains after 1.5 hour in a chill tank solution and spoilage 20-day shelf life longevity (caused by bacteria contamination) in a Graded Level Study Model. After normal processing of 56-day-old birds, carcasses were immersed first in a warm bath containing 10^4 CFU's per mL Escherichia coli, 10^4 CFU's per mL Salmonella enteritidis, 10^4 CFU's per mL Pseudomonas aeruginosa, 10^4 CFU's per mL Campylobacter jejuni, and 10^4 CFU's per mL spoilage bacteria each from two strains (Listeria monocytogenes and Shigella sonnei). Carcasses were then immersed in a chill tank “soup”, containing normal organic fluids (blood, fat, skin, and meat particles) and containing various disinfectants (termed test materials). These tests were conducted at pH 8 (adjusted by trisodium phosphate). Skin pigmentation (Minolta Color Meter L value or Lightness, a value or redness and b value or yellowness) was determined before and after processing. Post-chilling skin bacteria of various strains were determined over a 20-day period. […] After salmonella infection in chill tanks, USDA HACCP salmonella detection was simulated and reported.
A DBDMH stock solution and DBDMH test solutions of the concentrations specified in Table 33, a bacteria stock solution, and a “chicken soup” were prepared as in Example 3. In addition, the bacterial broth treatments, the whole bird wash sampling procedure, and the methodologies used for quantitative or qualitative determinations for bacterial organisms were conducted as in Example 3.
The trial events and experimental design used in this group of tests were the same as in Example 5 with the following exceptions: • a) The temperature during the 20-day period of storage in the refrigerator was […]. • b) Observations of the degree of “bloating” (defined as water or air additions under the skin area considered objectionable) were conducted on all processed birds. • c) On each of sampling days 0, 2, 4, 6, 8, 10, 12, 14, 16, 18, and 20, ten carcasses from each treatment were analyzed by removing 23.8 cm^2 of skin from the breast right up to the neck using a template and a sterile scalpel. Each skin sample was placed in a bag with 15 mL Butterfield's Phosphate Buffer Solution (BPBS) added and treated in a Stomacher bag for 60 seconds. A 10-fold dilution series of the mixture was made in BPBS and two parallel samples of […] each were spread on the appropriate plate count agar for determination of the total viable numbers. The plates were incubated at 35° C. for 24 hours. Mean values were calculated from the two determinations of the three samples taken from each combination of chilling and storage. Bacterial numbers were reported as pooled or averaged log10 colony-forming units (CFU's) per square centimeter. • d) Also on sampling day 0, 102 total of the remaining 110 carcasses from each treatment (all bloating and oddly processed birds were removed) were “whole bird” washed by the sampling procedure described in Example 3. Salmonella detection were noted and reported as number of positive salmonella colonies per 51 birds and % of total.

Q: What does the source list for `CC1(C)C(=O)N(Br)C(=O)N1Br` [DBDMH, 1,3-dibromo-5,5-dimethylhydantoin]?
A: planktonic HPC bacteria eradicated ([1]; 0.5 ppm as bromine, within three hours): ~99%; planktonic HPC bacteria eradicated ([1]; 5 ppm as bromine, within twelve hours): ~99.99%; Salmonella Positive Samples (Number per 51) (Salmonella; 5 ppm, control 32/51): 7/51; Salmonella Positive Samples (% of total) (Salmonella; 5 ppm, control 62.74%): 13.73%; Salmonella Positive Samples (% of total) (Salmonella; 10 ppm): 7.84%; Salmonella Positive Samples (Number per 51) (Salmonella; 10 ppm): 4/51; Salmonella Positive Samples (% of total) (Salmonella; 15 ppm): 3.92%; Salmonella Positive Samples (Number per 51) (Salmonella; 15 ppm): 2/51; Salmonella Positive Samples (% of total) (Salmonella; 20 ppm): 1.96%; Salmonella Positive Samples (Number per 51) (Salmonella; 20 ppm): 1/51; Salmonella Positive Samples (% of total) (Salmonella; 25 ppm): 0.00%; Salmonella Positive Samples (Number per 51) (Salmonella; 25 ppm): 0/51
